The text below walks through data of ChEMBL document CHEMBL1149215, “Chemoenzymatic synthesis and binding affinity of novel (R)- and (S)-3-aminomethyl-1-tetralones, potential atypical antipsychotics” (Bioorg Med Chem Lett, 2004).

Assay [1] concerns the target T1, 5-hydroxytryptamine receptor 2C (Homo sapiens, UniProt P28335).
T1 sequence (P28335 whole entry): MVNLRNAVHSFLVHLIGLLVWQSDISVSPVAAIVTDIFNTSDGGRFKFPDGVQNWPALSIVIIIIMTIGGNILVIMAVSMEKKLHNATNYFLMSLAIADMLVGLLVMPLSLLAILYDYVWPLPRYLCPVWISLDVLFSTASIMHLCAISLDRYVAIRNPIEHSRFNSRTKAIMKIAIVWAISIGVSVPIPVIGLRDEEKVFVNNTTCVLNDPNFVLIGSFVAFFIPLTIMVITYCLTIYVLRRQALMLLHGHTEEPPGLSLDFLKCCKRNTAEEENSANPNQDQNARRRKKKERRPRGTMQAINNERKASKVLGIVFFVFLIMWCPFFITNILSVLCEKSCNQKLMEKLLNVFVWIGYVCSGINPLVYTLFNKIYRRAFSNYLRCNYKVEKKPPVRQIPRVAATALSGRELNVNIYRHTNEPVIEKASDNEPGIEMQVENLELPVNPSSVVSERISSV
Description: Binding affinity towards serotonin 5-hydroxytryptamine 2C receptor

Assay [2] addresses 5-hydroxytryptamine receptor 2A (Homo sapiens, UniProt P28223).
Description: Binding affinity towards serotonin 5-hydroxytryptamine 2A receptor

Chain of 5-hydroxytryptamine receptor 2A (P28223 whole entry): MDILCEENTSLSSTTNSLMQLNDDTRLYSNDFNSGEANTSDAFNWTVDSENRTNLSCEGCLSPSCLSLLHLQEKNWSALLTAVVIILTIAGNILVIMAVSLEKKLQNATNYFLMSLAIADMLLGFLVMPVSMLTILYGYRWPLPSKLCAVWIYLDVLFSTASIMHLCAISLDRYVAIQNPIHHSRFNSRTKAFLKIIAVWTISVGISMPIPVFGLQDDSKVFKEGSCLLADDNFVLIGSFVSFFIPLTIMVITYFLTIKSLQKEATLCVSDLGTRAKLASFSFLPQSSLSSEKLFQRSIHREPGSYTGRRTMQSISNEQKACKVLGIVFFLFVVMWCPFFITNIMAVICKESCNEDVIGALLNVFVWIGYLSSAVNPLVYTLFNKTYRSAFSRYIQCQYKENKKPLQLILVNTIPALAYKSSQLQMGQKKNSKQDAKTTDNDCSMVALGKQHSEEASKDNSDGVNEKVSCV

For orientation: Ki means a dissociation constant, usually derived from enzyme kinetics or from competition with a known ligand. Regarding `COc1cc2c(cc1OC)C(=O)CC(CN1CCC(C(=O)c3ccc(F)cc3)CC1)C2` (racemic), the results for the Ki in assay [1] and in assay [2] were 83.2 nM and 6.03 nM, respectively.

Turning to `COc1ccc2c(c1)CC(CN1CCN(c3ccccc3OC)CC1)CC2=O` (racemic), the Ki in assay [1] was 46.8 nM; in assay [2] it was 891 nM.

As to `COc1ccc2c(c1)CC(CN1CCC(C(=O)c3ccc(F)cc3)CC1)CC2=O` (single isomer, unassigned; (-)), the Ki in assay [1] was 977 nM; in assay [2], 16.2 nM.

For the compound `O=C1CC(CN2CCC(C(=O)c3ccc(F)cc3)CC2)Cc2ccccc21` (stereo in doubt; (+)-7c), the Ki in assay [1] is 490 nM; in assay [2], 23.4 nM.

In assay [2], `COc1cc2c(cc1OC)C(=O)CC(CN1CCC(c3noc4cc(F)ccc34)CC1)C2` (racemic) gave a Ki of 9.55 nM.

Consider `COc1ccc2c(c1)CC(CN1CCC(c3noc4cc(F)ccc34)CC1)CC2=O` (single isomer, unassigned; (-)), for which the Ki in assay [1] is 832 nM; in assay [2], 26.3 nM.

On to `O=C1CC(CN2CCC(C(=O)c3ccc(F)cc3)CC2)Cc2ccccc21` (racemic), for which the Ki in assay [1] was 501 nM; in assay [2], 13.2 nM.

Turning to `O=C1CC(CN2CCC(C(=O)c3ccc(F)cc3)CC2)Cc2ccccc21` (stereo in doubt; (-)-7c), the Ki was 776 nM in assay [1] and 5.89 nM in assay [2].

`COc1cc2c(cc1OC)C(=O)CC(CN1CCC(c3noc4cc(F)ccc34)CC1)C2` (stereo in doubt; (-)-9d): affinity in assay [2] was put at a Ki of 7.24 nM.

In turn, `COc1ccc2c(c1)CC(CN1CCC(c3noc4cc(F)ccc34)CC1)CC2=O` (racemic) gave a Ki in assay [1] of 1620 nM.

Consider `COc1cc2c(cc1OC)C(=O)CC(CN1CCN(c3ccccn3)CC1)C2` (racemic), for which the Ki was more than 10000 nM in assay [1] and 661 nM in assay [2].

Take `COc1ccc2c(c1)CC(CN1CCC(C(=O)c3ccc(F)cc3)CC1)CC2=O` (single isomer, unassigned; (+)): the Ki in assay [1] was 1100 nM; in assay [2], 11.2 nM.

On to `COc1ccc2c(c1)CC(CN1CCC(c3noc4cc(F)ccc34)CC1)CC2=O` (single isomer, unassigned; (+)), for which the Ki was 513 nM in assay [1] and 1.48 nM in assay [2].

With `COc1cc2c(cc1OC)C(=O)CC(CN1CCC(C(=O)c3ccc(F)cc3)CC1)C2` (single isomer, unassigned; (-)), the Ki was 166 nM in assay [1] and 5.62 nM in assay [2].

As for `O=C1CC(CN2CCN(c3ccccn3)CC2)Cc2ccccc21` (racemic), the figures for the Ki in assay [1] and in assay [2] were 3310 nM and 977 nM, respectively.

On to `COc1ccccc1N1CCN(CC2CC(=O)c3ccccc3C2)CC1` (racemic), for which the affinity in assay [2], expressed as Ki, was 513 nM.

Regarding `O=C1CC(CN2CCC(c3noc4cc(F)ccc34)CC2)Cc2ccccc21` (stereo in doubt; (-)-7d), the results for the Ki in assay [1] and in assay [2] were 832 nM and 6.31 nM, respectively.

In the case of `O=C1CC(CN2CCC(c3noc4cc(F)ccc34)CC2)Cc2ccccc21` (stereo in doubt; (+)-7d), the Ki in assay [1] was 661 nM; in assay [2] it was 29.5 nM.

Regarding `O=C1CC(CN2CCC(c3noc4cc(F)ccc34)CC2)Cc2ccccc21` (racemic), the Ki in assay [1] was 129 nM; in assay [2] it was 2.69 nM.

Take `COc1cc2c(cc1OC)C(=O)CC(CN1CCN(c3ccccc3OC)CC1)C2` (racemic): the Ki is more than 10000 nM in assay [1] and 2340 nM in assay [2].

Regarding `COc1cc2c(cc1OC)C(=O)CC(CN1CCC(C(=O)c3ccc(F)cc3)CC1)C2` (single isomer, unassigned; (+)), the Ki in assay [1] was 575 nM; in assay [2], 43.7 nM.

Regarding `COc1ccc2c(c1)CC(CN1CCN(c3ccccn3)CC1)CC2=O` (racemic), the Ki in assay [1] was 4570 nM; in assay [2] it was 692 nM.

Turning to `COc1ccc2c(c1)CC(CN1CCC(C(=O)c3ccc(F)cc3)CC1)CC2=O` (racemic), the Ki was 1170 nM in assay [1] and 17.8 nM in assay [2].
